Where two headings read alike, the source gives them in different places.
Assay: Pharmacokinetics in SD rats
Format: in vivo, Sprague–Dawley (SD) rats
Details: for MRT inf: read-out: MRT0–∞; for half-life: read-out: T1/2z (converted)
Description: Given the potential of SKLB-11A for treating myocardial injury, we further evaluated its pharmacokinetic profile in Sprague–Dawley (SD) rats (Supplementary Table S5). The pharmacokinetics were assessed following both intravenous injection (1 mg/kg) and intragastric administration (10 mg/kg) of SKLB-11A.

[1] = Sprague-Dawley, rat, in vivo, iv, i.v. 1 mg/kg
[2] = Sprague-Dawley, rat, in vivo, po, p.o. 10 mg/kg

COC(=O)c1c(N)n(Cc2ccc(F)cc2)c2nc3ccccc3nc12 [SKLB-11A, Methyl 2-amino-1-(4-fluorobenzyl)-1H-pyrrolo[2,3-b]quinoxaline-3-carboxylate]
AUC(0-inf) [1]: 185 ± 20 ng·h/mL | AUC(0-t) [1]: 185 ± 19.9 ng·h/mL | Cmax [1]: 255 ± 3.42 ng/mL | Tmax [1]: 4.8 min | clearance (Sprague-Dawley, rat, in vivo, iv, i.v. 1 mg/kg, read-out: CLZ (converted)): 90.7 mL/min/kg | MRT inf [1]: 43.2 ± 3.6 min | half-life [1]: 36 ± 3.6 min | Vd (Sprague-Dawley, rat, in vivo, iv, i.v. 1 mg/kg, read-out: VZ): 4.66 ± 0.2 L/kg | AUC(0-inf) [2]: 128 ± 29.2 ng·h/mL | AUC(0-t) [2]: 123 ± 23.6 ng·h/mL | Cmax [2]: 67.9 ± 13 ng/mL | Tmax [2]: 15 min | MRT inf [2]: 266 ± 107 min | half-life [2]: 326 ± 156 min | VZ (p.o. 10 mg/kg): 39.99 ± 12.09 L/kg

Reference: publication PMC12123458, “Unraveling Small Molecule-Mediated Sirtuin 3 Activation at a Distinct Binding Site for Cardioprotective Therapies” (ACS Central Science, 2025)
